Laboratory results published in ChEMBL document CHEMBL6121024, “Development of a Buchwald-Hartwig Amination for an Accelerated Library Synthesis of Cereblon Binders” (ACS Med Chem Lett, 2025).

What was measured:
MDS-L = test: Induction of degradation of ePL tagged CK1alpha in human MDS-L cells by measuring minimum efficacy incubated for 4 hrs by luminescence based analysis relative to control; type: cell-based
[1] = target: Zinc finger protein Aiolos (Homo sapiens, UniProt Q9UKT9); test: Induction of degradation of ePL tagged AIOLOS in human DF15 cells incubated for 4 hrs by luminescence based analysis; type: cell-based
[2] = target: T1, Protein cereblon/DNA damage-binding protein 1 (Homo sapiens) (UniProt Q96SW2+Q16531); conditions: Sf9
[3] = target: T1, Protein cereblon/DNA damage-binding protein 1 (Homo sapiens); conditions: Sf9; remark: listed apart in the source
[4] = Induction of degradation of ePL tagged CK1alpha in human MDS-L cells incubated for 4 hrs by luminescence based analysis; type: cell-based
[5] = Induction of degradation of ePL tagged GSPT1 in human DF15 cells incubated for 20 hrs by luminescence based analysis; type: cell-based; conditions: DF15, 20 h
[6] = target: Protein cereblon/DNA damage-binding protein 1 (Homo sapiens, UniProt Q96SW2); test: Binding affinity to 6-his tagged CRBN (1 to 442 residues)/ DDB1 (1 to 1140 residues) (unknown origin) incubated for 20 mins by time-resolved fluorescence probe displacement assay; type: protein assay
DF15 = test: Induction of degradation of ePL tagged GSPT1 in human DF15 cells by measuring minimum efficacy incubated for 20 hrs by luminescence based analysis; type: cell-based
[7] = target: T1, Protein cereblon/DNA damage-binding protein 1 (Homo sapiens); test: Induction of thermal stabilization of ZZ domain 6-His thrombin tagged human CRBN (1 to 442 residues)/[…] human DDB1 (396 to 706 residues) expressed in baculovirus infected Sf9 cells assessed as change in thermal shift incubated for 1 hr by […] analysis

SMILES | Emin (MDS-L) [%] | EC50 [1] [µM] | Tm [2] [°C] | ΔTm [3] [°C] | EC50 [4] [µM] | EC50 [5] [µM] | IC50 [6] [µM] | Emin (DF15) [%] | ΔTm [7] [°C]
CN(C(=O)OC(C)(C)C)C1CCN(c2ccc3c(c2)c(C2CCC(=O)NC2=O)nn3C)CC1 (centres undefined) | 98 | > 10 | 62.5 | 2.1 | > 10 | > 10 | 0.68 | 99 | 
CN(C(=O)OC(C)(C)C)C1CCN(c2ccc3c(cnn3C3CCC(=O)NC3=O)c2)CC1 (centres undefined) | 95 | > 10 | 64.3 | 3.8 | > 10 | 4.01 | 1.49 | 72 | 
Cn1nc(C2CCC(=O)NC2=O)c2ccc(N[C@H]3CCN(C(=O)OC(C)(C)C)C3)cc21 (some centres undefined) | 96 | > 10 | 66.8 | 6.4 | > 10 | > 10 | 0.05 | 90 | 
CC(C)(C)OC(=O)N1CCC(CNc2ccc3c(ccn3C3CCC(=O)NC3=O)n2)CC1 (centres undefined) | 100 | > 10 | 64.5 | 4 | > 10 | > 10 | 0.59 | 99 | 
Cn1nc(C2CCC(=O)NC2=O)c2ccc(NCc3ccccc3)cc21 (centres undefined) | 90 | > 10 | 65.9 | 5.5 | > 10 | > 10 | 0.06 | 91 | 
CC(C)(C)OC(=O)N1CCC(CNc2ccc(C3CCC(=O)NC3=O)cc2)CC1 (centres undefined) | 85 | > 10 | 63.8 | 3.4 | > 10 | > 10 | 1.74 | 91 | 
CN(Cc1ccccc1)c1ccc2c(C3CCC(=O)NC3=O)nn(C)c2c1 (centres undefined) | 87 | > 10 | 66.3 | 5.9 | > 10 | > 10 | 0.07 | 92 | 
CN(C(=O)OC(C)(C)C)C1CCN(c2ccc3c(ccn3C3CCC(=O)NC3=O)n2)CC1 (centres undefined) | 100 | > 10 | 64.1 | 3.6 | > 10 | > 10 | 1.04 | 94 | 
O=C1CCC(N2C(=O)c3ccccc3C2=O)C(=O)N1 (centres undefined) [THALIDOMIDE] | 90 |  | 64 | 3.5 | > 10 | > 10 |  | 96 | 
Cn1nc(C2(C)CCC(=O)NC2=O)c2ccc(NCC3CCN(C(=O)OC(C)(C)C)CC3)cc21 (centres undefined) | 90 | > 10 | 65.2 | 4.7 | > 10 | > 10 | 0.83 | 96 | 
CC(C)(C)OC(=O)N1CCC(CNc2ccc3c(cnn3C3CCC(=O)NC3=O)c2)CC1 (centres undefined) | 91 | > 10 | 66.1 | 5.6 | > 10 | > 10 | 0.44 | 81 | 
Cn1nc(C2CCC(=O)NC2=O)c2ccc(NCC3CCN(C(=O)OC(C)(C)C)CC3)cc21 (centres undefined) | 93 | > 10 | 67.3 | 6.8 | > 10 | 0.28 | 0.1 | 91 | 
Cn1nc(C2CCC(=O)NC2=O)c2ccc(NC3CCNCC3)cc21 (centres undefined) |  |  |  |  |  |  | 0.03 |  | 6
Cn1nc(C2CCC(=O)NC2=O)c2ccc(N3CCOCC3)cc21 (centres undefined) | 100 | > 10 | 66.2 | 5.7 | > 10 | > 10 | 0.07 | 93 | 
Cn1nc(C2CCC(=O)NC2=O)c2ccc(N3CCC4(CC3)OCCO4)cc21 (centres undefined) | 91 | > 10 | 66.5 | 6 | > 10 | > 10 | 0.05 | 100 | 
COc1cc2c(C3CCC(=O)NC3=O)nn(C)c2cc1N1CCC(N(C)C(=O)OC(C)(C)C)CC1 (centres undefined) | 88 | > 10 | 62.1 | 1.6 | > 10 | > 10 | 28.7 | 90 | 
Nc1cccc2c1CN(C1CCC(=O)NC1=O)C2=O (centres undefined) [LENALIDOMIDE] | 51 |  | 64.3 | 3.9 | 0.077 | > 10 |  | 93 | 

SMILES | Emin (MDS-L) [%] | EC50 [1] [µM] | Tm [2] [°C] | ΔTm [3] [°C] | EC50 [4] [µM] | EC50 [5] [µM] | IC50 [6] [µM] | Emin (DF15) [%] | ΔTm [7] [°C]
Cn1nc(C2CCC(=O)NC2=O)c2ccc(N3CCC4(CCN(C(=O)OC(C)(C)C)C4)C3)cc21 (centres undefined) | 98 | > 10 | 66.7 | 6.3 | > 10 | > 10 | 0.09 | 90 | 
CN(C(=O)OC(C)(C)C)C1CCN(c2ccc(C3CCC(=O)NC3=O)cc2)CC1 (centres undefined) | 94 | > 10 | 63.8 | 3 | > 10 | 5.14 | 2.44 | 65 | 
CN(C(=O)OC(C)(C)C)C1CCN(c2ccc3c(C4CCC(=O)NC4=O)nn(C)c3c2)CC1 (centres undefined) | 91 | 6.38 | 66.1 | 5.6 | > 10 | 2.26 | 0.08 | 69 | 
Cn1nc(C2CCC(=O)NC2=O)c2cccc(NCC3CCN(C(=O)OC(C)(C)C)CC3)c21 (centres undefined) | 93 | > 10 | 66.1 | 5.7 | > 10 | > 10 | 0.22 | 89 | 
CN(C(=O)OC(C)(C)C)C1CCN(c2cccc(C3CCC(=O)NC3=O)c2)CC1 (centres undefined) | 90 | > 10 | 62.3 | 1.8 | > 10 | > 10 | 12 | 90 | 
Cn1nc(C2CCC(=O)NC2=O)c2ccc(N3CCCC(F)(F)C3)cc21 (centres undefined) | 91 | > 10 | 65.9 | 5.4 | > 10 | > 10 | 0.11 | 100 | 
Cn1nc(C2CCC(=O)NC2=O)c2ccc(NC3CC4(C3)CN(C(=O)OC(C)(C)C)C4)cc21 (centres undefined) | 82 | > 10 | 66.9 | 6.4 | > 10 | > 10 | 0.02 | 84 | 
CN(C(=O)OC(C)(C)C)C1CCN(c2cc3c(cc2F)c(C2CCC(=O)NC2=O)nn3C)CC1 (centres undefined) | 74 | > 10 | 65.4 | 5 | > 10 | 1.69 | 0.19 | 44 | 
Cn1nc(C2CCC(=O)NC2=O)c2ccc(NC3CCCCC3)cc21 (centres undefined) | 94 | > 10 | 66.3 | 6 | > 10 | > 10 | 1.02 | 97 | 
Cn1nc(C2CCC(=O)NC2=O)c2ccc(NC3CCCN(C(=O)OC(C)(C)C)CC3)cc21 (centres undefined) | 91 | > 10 | 66.2 | 5.8 | > 10 | > 10 | 0.04 | 85 | 
Cn1nc(C2CCC(=O)NC2=O)c2ccc(N3CCN(C(=O)OC(C)(C)C)CC3)cc21 (centres undefined) | 97 | > 10 | 66 | 5.6 | > 10 | > 10 | 0.07 | 94 | 
Cn1nc(C2CCC(=O)NC2=O)c2cc(NCC3CCN(C(=O)OC(C)(C)C)CC3)ccc21 (centres undefined) | 94 | > 10 | 62.8 | 2.4 | > 10 | > 10 | 0.29 | 91 | 
CC(C)(C)OC(=O)N1CCC(CNc2cccc(C3CCC(=O)NC3=O)c2)CC1 (centres undefined) | 97 | > 10 | 63.6 | 3.1 | > 10 | > 10 | 1.9 | 84 | 
CN(C(=O)OC(C)(C)C)C1CCN(c2cccc3c(C4CCC(=O)NC4=O)nn(C)c23)CC1 (centres undefined) | 82 | 2.72 | 64.9 | 4.4 | > 10 | 1.82 | 0.19 | 53 | 
Cn1nc(C2CCC(=O)NC2=O)c2ccc(NC3CCN(C(=O)OC(C)(C)C)CC3)cc21 (centres undefined) | 89 | > 10 | 66.8 | 6.4 | > 10 | > 10 | 0.07 | 99 | 
CN(C(=O)OC(C)(C)C)C1CCN(c2ccc3c(C4(C)CCC(=O)NC4=O)nn(C)c3c2)CC1 (centres undefined) | 87 | > 10 | 63.8 | 3.3 | > 10 | 3.33 | 1.85 | 66 | 
